PubChem BioAssay AID1259407 (Chemical Carcinogenesis Research Information System (CCRIS), 2018)
The source made the active and inactive calls. The rule behind the calls is not given here.

Test system: CCRIS mutagenicity, Ames/micronucleus/aberration tests
Assay: CCRIS mutagenicity studies

Measured: mutagenic call

CC(C)C1(C)N=C(c2ncccc2C(=O)O)NC1=O (configuration not stated)
inactive: End Point: IN VIVO MICRONUCLEUS, Test System: BONE MARROW POLYCHROMATIC ERYTHROCYTES, Species: MOUSE, Strain/Sex: SWISS/MALE, FEMALE, Route: IP 2X IN AQUEOUS SUSPENSION WITHIN 24 HR inactive; negative

O=C(O)c1cc(=O)c2cccc(O)c2[nH]1
inactive: Test System: AMES SALMONELLA TYPHIMURIUM, Strain/Indicator: TA100, Metabolic Activation: NONE, Method: PREINCUBATION inactive; negative

CNC(=O)c1c(N(C)N=O)ncn1C
inactive: Test System: AMES SALMONELLA TYPHIMURIUM, Strain/Indicator: TA98, Metabolic Activation: NONE, Method: STANDARD PLATE inactive; negative | Test System: AMES SALMONELLA TYPHIMURIUM, Strain/Indicator: TA98, Metabolic Activation: S-9, Method: PREINCUBATION inactive; negative | Test System: AMES SALMONELLA TYPHIMURIUM, Strain/Indicator: TA98, Metabolic Activation: S-9, Method: STANDARD PLATE inactive; negative | Test System: AMES SALMONELLA TYPHIMURIUM, Strain/Indicator: TA100, Metabolic Activation: NONE, Method: STANDARD PLATE inactive; negative | Test System: AMES SALMONELLA TYPHIMURIUM, Strain/Indicator: TA100, Metabolic Activation: S-9, Method: PREINCUBATION inactive; negative | Test System: AMES SALMONELLA TYPHIMURIUM, Strain/Indicator: TA100, Metabolic Activation: S-9, Method: STANDARD PLATE inactive; negative | Test System: AMES SALMONELLA TYPHIMURIUM, Strain/Indicator: TA102, Metabolic Activation: NONE, Method: STANDARD PLATE inactive; negative | Test System: AMES SALMONELLA TYPHIMURIUM, Strain/Indicator: TA102, Metabolic Activation: S-9, Method: PREINCUBATION inactive; negative | Test System: AMES SALMONELLA TYPHIMURIUM, Strain/Indicator: TA102, Metabolic Activation: S-9, Method: STANDARD PLATE inactive; negative | Test System: AMES SALMONELLA TYPHIMURIUM, Strain/Indicator: TA1535, Metabolic Activation: NONE, Method: STANDARD PLATE inactive; negative | Test System: AMES SALMONELLA TYPHIMURIUM, Strain/Indicator: TA1535, Metabolic Activation: S-9, Method: PREINCUBATION inactive; negative | Test System: AMES SALMONELLA TYPHIMURIUM, Strain/Indicator: TA1535, Metabolic Activation: S-9, Method: STANDARD PLATE inactive; negative | Test System: AMES SALMONELLA TYPHIMURIUM, Strain/Indicator: TA1537, Metabolic Activation: NONE, Method: STANDARD PLATE inactive; negative | Test System: AMES SALMONELLA TYPHIMURIUM, Strain/Indicator: TA1537, Metabolic Activation: S-9, Method: PREINCUBATION inactive; negative | Test System: AMES SALMONELLA TYPHIMURIUM, Strain/Indicator: TA1537, Metabolic Activation: S-9, Method: STANDARD PLATE inactive; negative
